Source: patent publication US20060111346A1, “Methods of modulating high-density lipoprotein cholesterol levels and pharmaceutical formulations for the same” (Fazix Corporation., priority 2004, published 2006)
Where two headings read alike, the source gives them in different places.

Key:
[1] = system: Apo*E3Leiden.hCETP mice; conditions: for HDL cholesterol relative to control group / HDL phospholipids relative to control group / LDL cholesterol relative to control group / LDL phospholipids relative to control group: pooled blood
Protocol: A test group of 36 female transgenic Apo*E3Leiden/hCETP mice were fed a high fat western-type diet (containing by weight 15% coconut oil and 0.1% cholesterol) to increase plasma cholesterol levels to around 10 mM. After three weeks the mice were subdivided into 6 groups of 6 mice each, matched for plasma cholesterol, triglycerides and age.
Oral gavage at each separate concentration was administered with an aqueous solution containing by volume 5% ethanol, 4% PEG-400, 1% cremaphor over a period of 1 week per concentration. At the end of each 1 week treatment period, blood samples were collected after a 4 hours fasting period. Mice treated by oral gavage were left alone for 1 week after each collection of blood samples.
For each subcutaneous depot injection experiment, the appropriate dose in sesame oil solution was injected once and blood samples were collected 24 hours after injection (at the end of a 4 hour fasting period). Mice treated by subcutaneous injection were left alone for 13 days after each collection of blood samples.
Blood samples from untreated test animals and from animals treated by gavage or subcutaneous depot injection were pooled separately and a lipoprotein profile was measured by AKTA fast protein liquid chromatography (FPLC)(http://www.gmi-inc.com/BioTechLab/Pharmacia%20AKTA.htm) to determine the level of cholesterol and phospholipid associated with HDL and LDL. […] Additionally, food intake levels (per group), body weights, cholesterol levels, and triglyceride levels, were monitored.

[2] = molecular target: T1, CETP (Oryctolagus cuniculus, UniProt P22687); experiment: CETP Inhibitor Drug Screening Kit (Biovision K602-100), cholesterol transfer activity; type: biochemical; conditions: 100 μM
T1 construct: purchased Biovision Research Products K602-100
T1 sequence (P22687 2-497): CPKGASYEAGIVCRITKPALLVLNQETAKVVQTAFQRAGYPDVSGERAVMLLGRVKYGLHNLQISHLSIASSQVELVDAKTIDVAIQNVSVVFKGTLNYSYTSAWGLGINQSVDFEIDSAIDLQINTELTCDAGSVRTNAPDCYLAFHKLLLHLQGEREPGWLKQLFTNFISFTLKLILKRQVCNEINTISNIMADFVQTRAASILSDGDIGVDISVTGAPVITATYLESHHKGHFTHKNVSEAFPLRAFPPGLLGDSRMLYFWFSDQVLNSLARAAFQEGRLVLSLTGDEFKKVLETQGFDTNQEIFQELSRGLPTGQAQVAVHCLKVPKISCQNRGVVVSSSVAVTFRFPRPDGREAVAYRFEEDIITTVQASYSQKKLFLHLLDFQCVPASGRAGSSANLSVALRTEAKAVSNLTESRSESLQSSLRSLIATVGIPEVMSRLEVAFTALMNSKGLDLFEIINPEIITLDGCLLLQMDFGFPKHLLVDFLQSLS
Protocol: The inhibitory activity of FZX-CETP-001 was determined in vitro using a commercially available CETP Inhibitor Drug Screening Kit (catalog # K602-100). The kit is available from Biovision Research Products, located in Mountain View, Calif. USA. Information regarding the kit is available at the following url addresses: http://www.biovisionlabs.com/cetp-pltp.html; and http://www.biovision.com/pdf/K602-100.pdf
Following the directions provided with the kit, FZX-CETP-001 was assayed for inhibitory activity.

[3] = oral gavage 0.1 mg/kg/day, 1 week
[4] = oral gavage 0.3 mg/kg/day, 1 week
[5] = oral gavage 1.0 mg/kg/day, 1 week
[6] = serum cholesterol profiles, FIGS. 2A-2D, increasing dose
[7] = serum phospholipid profiles, increasing dose
[8] = subcutaneous depot injection 0.3 mg/kg, 24 hours after injection
[9] = subcutaneous depot injection 1.0 mg/kg, 24 hours after injection
[10] = subcutaneous depot injection 3.0 mg/kg, 24 hours after injection

Q: For CC(C)(Oc1ccc(Cl)cc1)C(=O)OCCN1CCN(CCCN2c3ccccc3Sc3ccc(C(F)(F)F)cc32)CC1 [FZX-CETP-0001, Fluphenazine 4-chlorophenoxyisobutyric acid ester], which “HDL-C to LDL-C ratio” value ([1]; lowest tested dosage of 0.1 mg/kg/day by gavage, treated vs untreated control) is on record?
A: Its value is “marked increase”.

Q: And the “control parameters (food intake levels, body weights, cholesterol levels, triglyceride levels)” value ([1]; mouse, in vivo)?
A: Its value is “no statistically significant difference”.

Q: What about the “HDL cholesterol relative to control group” value [1, 3] of the same molecule?
A: Its value is 204%.

Q: What about the “HDL phospholipids relative to control group” value [1, 3] of the same molecule?
A: The value was 128%.

Q: And the “LDL cholesterol relative to control group” value [1, 3]?
A: Its value is 81%.

Q: And the “LDL phospholipids relative to control group” value [1, 3]?
A: Its value is 81%.

Q: What about the “HDL cholesterol relative to control group” value [1, 4] of the same molecule?
A: Its value is 121%.

Q: And the “HDL phospholipids relative to control group” value [1, 4]?
A: Its value is 136%.

Q: And the “LDL cholesterol relative to control group” value [1, 4]?
A: Its value is 94%.

Q: And the “LDL phospholipids relative to control group” value [1, 4]?
A: The value was 92%.

Q: What about the “HDL cholesterol relative to control group” value [1, 5] of the same molecule?
A: Its value is 269%.

Q: What about the “HDL phospholipids relative to control group” value [1, 5] of the same molecule?
A: Its value is 129%.

Q: And the “LDL cholesterol relative to control group” value [1, 5]?
A: Its value is 80%.

Q: And the “LDL phospholipids relative to control group” value [1, 5]?
A: The value was 96%.

Q: What about the “ratio of HDL-C level in the treated to untreated mice” value [1, 6] of the same molecule?
A: Its value is “increases”.

Q: And the “ratio of LDL-C level (total area under the curve) in treated to untreated mice” value [1, 6]?
A: The value was “decreases with increasing dose”.

Q: What about the “ratio of HDL-C level in the treated to untreated mice” value [1, 7] of the same molecule?
A: The value was “increases”.

Q: What about the “ratio of LDL-C phospholipid level (total area under the curve) in treated to untreated mice” value [1, 7] of the same molecule?
A: Its value is “decreases with increasing dose”.

Q: And the “HDL cholesterol relative to control group” value [1, 8]?
A: Its value is 286%.

Q: What about the “HDL phospholipids relative to control group” value [1, 8] of the same molecule?
A: The value was 141%.

Q: What about the “LDL cholesterol relative to control group” value [1, 8] of the same molecule?
A: Its value is 100%.

Q: And the “LDL phospholipids relative to control group” value [1, 8]?
A: The value was 71%.

Q: What about the “HDL cholesterol relative to control group” value [1, 9] of the same molecule?
A: Its value is 277%.

Q: What about the “HDL phospholipids relative to control group” value [1, 9] of the same molecule?
A: The value was 173%.

Q: What about the “LDL cholesterol relative to control group” value [1, 9] of the same molecule?
A: The value was 78%.

Q: And the “LDL phospholipids relative to control group” value [1, 9]?
A: Its value is 56%.

Q: And the “HDL cholesterol relative to control group” value [1, 10]?
A: Its value is 1119%.

Q: And the “HDL phospholipids relative to control group” value [1, 10]?
A: The value was 169%.

Q: And the “LDL cholesterol relative to control group” value [1, 10]?
A: The value was 55%.

Q: What about the “LDL phospholipids relative to control group” value [1, 10] of the same molecule?
A: The value was 70%.

Q: What about the triglyceride level ([1]; subcutaneous injections at doses at or above 1 mg/kg) of the same molecule?
A: The triglyceride level was “slightly reduced”.

Q: What about the “inhibition of CETP” value [2] of the same molecule?
A: Its value is 100%.

Q: What about the “Cholesterol Transfer Activity, Fluorescence Units” value ([2]; Average, N = 2) of the same molecule?
A: Its value is 8312 Fluorescence Units.
